The record followed here is patent US5250543A, “Derivatives of 1,4-dihydropyridine, their preparation procedure and therapeutic compositions containing them” (priority 1991, dated 1993).

Counter-ions that a name gives are not always drawn.

The target of one data set is DHP membranous site. Briefly: Receptor binding at DHP membranous site with 3H-radiolabelled ligand isradipine. The conditions noted are these: same value used as dose in aorta test, read-out: IC50 at the receptors. On the procedure: (§1) For this purpose, the IC50 values were at first determined at the receptors (on the DHP membranous site with ^3 H-radiolabelled ligand isradipine and with these doses the percentage of inhibition in the contraction of the isolated aorta was determined.

In another data set the test system is rat's isolated aorta. Briefly: Calcium blocking activity in vitro: KCl contraction of the rat's isolated aorta. The class given is cell-based. On the procedure: The calcium blocking activity was determined in vitro by using the method of contracting the rat's isolated aorta with KCI (see Bernard Swynghedauw--Animal Experiments in Cardiology, Collection INSERM Medicine Sciences, Flammarion).
as §1

A short description of data set [1]: Solubility in water (noted in preparation). The format is physicochemical. To be noted: isolated powder, in words.
Data set [2] is described as follows: Acute toxicity (intraperitoneal) in rats. To be noted: rat, in vivo, ip, Sprague-Dawley rats, Example 1 given as 20 mg/ml aqueous suspension, nicardipine under the same conditions. As for the experimental part:
The acute toxicity of the compound of example 1 was determined on rats injected intraperitoneally (Sprague-Dawley rats) and the product was administered as a 20 mg/ml aqueous suspension.

The subject of data set [3] is conscious Wistar rats suffering from genetic hypertension. Briefly: Effects on mean arterial pressure and heartbeat frequency in conscious rats suffering from genetic hypertension. The format is in vivo, rat (Wistar). The conditions noted are these: oral, 16 mg/kg; for Heartbeat frequency / tachycardiac effect (in words): early effect (nicardipine after five minutes). As for the experimental part:
The effects were tested using conscious Wistar rats suffering from genetic hypertension (6 rats per compound). The compounds were administered orally as a 16 mg/kg (under 5.3 ml/kg) dose in suspension.

For data set [4], the system named is histamine hyperpermeability in Sprague-Dawley rats. Briefly: Effect on histamine hyperpermeability (Evan's Blue intradermal extravasation). The class given is in vivo, rat (Sprague-Dawley). As for the experimental part: The effect of CRL 41695 administered intraperitoneally on hystamine hyperpermeability was tested on Sprague-Dawley rats.
The parameter tested was the effect on Evan's Blue intradermal extravasation induced by histamine injection.
24 hours after shaving and epilation of the rat's flanks, CRL 41695 was injected intraperitoneally at dose levels of 10 mg/kg (dispersed in 0.9% NaCl +5% carboxymethylcellulose) and 10 minutes later 0.25 ml/100 g of Evan's Blue at 2% injected intravenously.
0.1 ml of 0.9% NaCl was then injected intradermally in the left flank and 0.01 ml of histamine ([…]) in the right flank.
The rats were sacrificed after 40 minutes and the injection sites removed. The Evan's Blue was extracted from the skin with 65% formamide and the solvent was removed by filtration. The optical density was determined as 620 nm.

Broadly, the IC50 is the concentration at which inhibition is half-maximal. One may read the inhibition as the percentage by which the read-out fell short of the control. As to `COC(=O)C1=C(C)NC(C)=C(C(=O)O[C@H]2CCCN(CCCC(=O)c3c(OC)cc(OC)cc3OC)C2)[C@H]1c1cccc([N+](=O)[O-])c1` (single isomer, unassigned) [Example 8, hydrochloride], at DHP membranous site, the IC50 was determined as 4 nM. In the data set on rat's isolated aorta (dose 4 × 10^-9 M (= receptor IC50)), the inhibition at 0.004 µM stood at 40%. For the same compound, in data set [1], the Solubility in water result was “water-insoluble”.
Take `COC(=O)C1=C(C)NC(C)=C(C(=O)O[C@@H]2CCCN(CCCC(=O)c3c(OC)cc(OC)cc3OC)C2)[C@H]1c1cccc([N+](=O)[O-])c1` (single isomer, unassigned) [Example 9, hydrochloride]: on DHP membranous site, the IC50 worked out at 0.6 nM. Also, the inhibition at 0.0006 µM in the data set with rat's isolated aorta (dose 6 × 10^-10 M (= receptor IC50)) was determined as 60%. Further, the Solubility in water entry in data set [1] is given as “water-insoluble”.
The term LD50 denotes the dose at which mortality reaches 50%. The low end stands for greater toxicity, the high end for lower toxicity. In turn, `COC(=O)C1=C(C)NC(C)=C(C(=O)OC2CCCN(CCCC(=O)c3c(OC)cc(OC)cc3OC)C2)C1c1cccc([N+](=O)[O-])c1` (centres unmarked) [Example 1, 2,6-dimethyl-4-(3-nitro-phenyl)-5-methoxycarbonyl-1,4-dihydropyridine-3-carboxylic acid N-[3-(2,4,6-trimethoxybenzoyl)propyl]piperidine-3'-yl ester, hydrochloride] returned an LD50 in data set [2] of 249 ± 50 mg/kg. In data set [3], the “Duration of significant hypotension” value is “at least 7 hours”; the “Heartbeat frequency, variation after 5 mins” value was “+13%”; the “Arterial pressure, variation after 3 hrs” value is reported as -50%; the “Heartbeat frequency, variation after 5 hrs” value turned out to be 0%. In data set [3], the “Arterial pressure, variation after 7 hrs” value is on record as -42%; the “Heartbeat frequency / tachycardiac effect (in words)” value is “only slightly increased”; the “Secondary tachycardiac effect (in words)” value is “not found”. Besides, the “Hypotension (in words)” value in data set [3] (during at least 7 hours) is “significantly raised”. Moreover, the “Antihyperpermeable effect (intradermal concentration of Evan's Blue induced by histamine, in words)” value in data set [4] (10 mg/kg intraperitoneal) was “decrease greatly the intradermal concentration of Evan's Blue”. The “Decrease in the intradermal concentration of Evan's Blue” value in data set [4] (ip, 10 mg/kg) was 50%. Moreover, the Solubility in water entry in data set [1] (hydrochloride) is listed as “water-insoluble”.
For `COC(=O)C1=C(C)NC(C)=C(C(=O)OC2CCCN(CCCC(=O)c3c(OC)cc(OC)cc3OC)C2)C1c1cccc([N+](=O)[O-])c1` (centres unmarked) [Example 2, 2,6-dimethyl-4-(-3-nitrophenyl)-5-methoxycarbonyl-1,4-dihydropyridine-3-carboxylic acid N-[3-(2,4,6,trimethoxybenzoyl)propyl]piperidine-3-yl ester], the IC50 at DHP membranous site was found to be 10 nM. The inhibition at 0.01 µM with rat's isolated aorta (dose 10^-8 M (= receptor IC50)) was 60%. The Solubility in water entry in data set [1] is “soluble in water in the presence of acetic acid”.
Turning to `COC(=O)C1=C(C)NC(C)=C(C(=O)OCC2CCCN2CCCC(=O)c2c(OC)cc(OC)cc2OC)C1c1cccc([N+](=O)[O-])c1` (centres unmarked) [Example 3, 2,6-dimethyl-4-(3-nitrophenyl-5-methoxycarbonyl-1,4-dihydropyridine-3-carboxylic acid N-[3-(2,4,6-trimethoxybenzoyl)propyl]pyrrolidylmethyl ester, hydrochloride], in data set [1], the Solubility in water entry is given as “water-insoluble”.
Turning to `COC(=O)C1=C(C)NC(C)=C(C(=O)O[C@H]2CCCN(CCCC(=O)c3c(OC)cc(OC)cc3OC)C2)[C@H]1c1cccc([N+](=O)[O-])c1` [Example 4, (+)(4S, 3'S) 2,6-dimethyl-4-(3-nitrophenyl)-5-methoxycarbonyl-1,4-dihydropyridine-3-carboxylic acid N-[3-(2,4,6-trimethoxybenzoyl)propyl]piperidine-3'-yl ester], on DHP membranous site, the IC50 came out at 3 nM. In the data set with rat's isolated aorta (dose 3 × 10^-9 M (= receptor IC50)), the inhibition at 0.003 µM turned out to be 70%. Also, the Solubility in water entry in data set [1] is given as “water-insoluble”.
`COC(=O)C1=C(C)NC(C)=C(C(=O)O[C@@H]2CCCN(CCCC(=O)c3c(OC)cc(OC)cc3OC)C2)[C@@H]1c1cccc([N+](=O)[O-])c1` [Example 5, (-)(4R, 3'R) 2,6-dimethyl-4-(3-nitrophenyl)-5-methoxycarbonyl-1,4-dihydropyridine-3-carboxylic acid N-[3-(2,4,6-trimethoxybenzoyl)propyl]piperidine-3-yl ester]: the Solubility in water entry in data set [1] is recorded as “water-insoluble”.
Regarding `COC(=O)C1=C(C)NC(C)=C(C(=O)O[C@H]2CCCN(CCCC(=O)c3c(OC)cc(OC)cc3OC)C2)[C@@H]1c1cccc([N+](=O)[O-])c1` [Example 6, (+)(4R, 3'S) 2,6-dimethyl-4-(3-nitrophenyl)-5-methoxycarbonyl-1,4-dihydropyridine-3-carboxylic acid N-[3-(2,4,6-trimethoxybenzoyl)propyl]piperidine-3'-yl ester], the Solubility in water entry in data set [1] is recorded as “water-insoluble”.
Turning to `COC(=O)C1=C(C)NC(C)=C(C(=O)O[C@@H]2CCCN(CCCC(=O)c3c(OC)cc(OC)cc3OC)C2)[C@H]1c1cccc([N+](=O)[O-])c1` [Example 7, (-)(4S, 3'R) 2,6-dimethyl-4-(3-nitrophenyl)-5-methoxycarbonyl-1,4-dihydropyridine-3-carboxylic acid N-[3-(2,4,6-trimethoxybenzoyl)propyl]piperidine-3'-yl ester], the IC50 on DHP membranous site was 2 nM. Further, the inhibition at 0.002 µM in the data set on rat's isolated aorta (dose 2 × 10^-9 M (= receptor IC50)) came out at 80%. In data set [1], the Solubility in water entry is “water-insoluble”.
On to `COC(=O)C1=C(C)NC(C)=C(C(=O)OC2CCCN(CCCC(=O)c3c(OC)cc(OC)cc3OC)C2)C1c1cccc([N+](=O)[O-])c1` (centres unmarked) [Example 10, 2,6-dimethyl-4-(3-nitrophenyl)-5-methoxycarbonyl-1,4-dihydropyridine-3-carboxylic acid N-[3-(2,4,6-trimethoxybenzoyl)propyl]piperidine-3'-yl, lactate], for which, in data set [1], the Solubility in water entry is on record as “soluble in cold water but is precipitated on warming”.
Take `COC(=O)C1=C(C)NC(C)=C(C(=O)OC2CCCN(CCCC(=O)c3c(OC)cc(OC)cc3OC)C2)C1c1cccc([N+](=O)[O-])c1` (centres unmarked) [Example 11, 2,6-dimethyl-4-(3-nitrophenyl)-5-methoxycarbonyl-1,4-dihydropyridine-3-carboxylic acid N-[3-(2,4,6-trimethoxybenzoyl)propyl]piperidine-3'-yl ester, glutamate]: the Solubility in water entry in data set [1] was “water-insoluble”.
As for `COC(=O)C1=C(C)NC(C)=C(C(=O)OC2CCCN(CCCC(=O)c3c(OC)cc(OC)cc3OC)C2)C1c1cccc([N+](=O)[O-])c1` (centres unmarked) [Example 12, 2,6-dimethyl-4-(3-nitrophenyl)-5-methoxycarbonyl-1,4-dihydropyridine-3-carboxylic acid N-[3-(2,4,6-trimethoxybenzoyl)propyl]piperidine-3'-yl ester, aspartate], the Solubility in water entry in data set [1] was “water-insoluble”.
In data set [2], `COC(=O)C1=C(C)NC(C)=C(C(=O)OCCN(C)Cc2ccccc2)C1c1cccc([N+](=O)[O-])c1` (centres unmarked) [nicardipine, reference compound] returned an LD50 of 233 ± 65 mg/kg. For the same compound, in data set [3], the “Time of maximum secondary tachycardiac effect” value was determined as 5 h; the “Heartbeat frequency, variation after 5 mins” value is “+32%”; the “Arterial pressure, variation after 3 hrs” value is -39%; the “Heartbeat frequency, variation after 5 hrs” value is recorded as “+23%”. Further, in data set [3], the “Arterial pressure, variation after 7 hrs” value is on record as -27%; the “Heartbeat frequency / tachycardiac effect (in words)” value is “clear tachycardiac effect after five minutes”; the “Secondary tachycardiac effect (in words)” value is given as “secondary tachycardiae effect was also observed”.
